Laboratory results reported in PMC8596838, “Xylose‐Configured Cyclophellitols as Selective Inhibitors for Glucocerebrosidase” (Chembiochem, 2021).

Biological target: T1, GBA2 (Homo sapiens, UniProt Q9HCG7)
T1 construct: expressed in transfected cells; host or cells: HEK293T (GBA/GBA2 KO background for the fluorogenic assay; endogenous-GBA background with GBA2 and GBA3 overexpressed for ABPP and intact-cell assays)
T1 sequence (Q9HCG7 1-927): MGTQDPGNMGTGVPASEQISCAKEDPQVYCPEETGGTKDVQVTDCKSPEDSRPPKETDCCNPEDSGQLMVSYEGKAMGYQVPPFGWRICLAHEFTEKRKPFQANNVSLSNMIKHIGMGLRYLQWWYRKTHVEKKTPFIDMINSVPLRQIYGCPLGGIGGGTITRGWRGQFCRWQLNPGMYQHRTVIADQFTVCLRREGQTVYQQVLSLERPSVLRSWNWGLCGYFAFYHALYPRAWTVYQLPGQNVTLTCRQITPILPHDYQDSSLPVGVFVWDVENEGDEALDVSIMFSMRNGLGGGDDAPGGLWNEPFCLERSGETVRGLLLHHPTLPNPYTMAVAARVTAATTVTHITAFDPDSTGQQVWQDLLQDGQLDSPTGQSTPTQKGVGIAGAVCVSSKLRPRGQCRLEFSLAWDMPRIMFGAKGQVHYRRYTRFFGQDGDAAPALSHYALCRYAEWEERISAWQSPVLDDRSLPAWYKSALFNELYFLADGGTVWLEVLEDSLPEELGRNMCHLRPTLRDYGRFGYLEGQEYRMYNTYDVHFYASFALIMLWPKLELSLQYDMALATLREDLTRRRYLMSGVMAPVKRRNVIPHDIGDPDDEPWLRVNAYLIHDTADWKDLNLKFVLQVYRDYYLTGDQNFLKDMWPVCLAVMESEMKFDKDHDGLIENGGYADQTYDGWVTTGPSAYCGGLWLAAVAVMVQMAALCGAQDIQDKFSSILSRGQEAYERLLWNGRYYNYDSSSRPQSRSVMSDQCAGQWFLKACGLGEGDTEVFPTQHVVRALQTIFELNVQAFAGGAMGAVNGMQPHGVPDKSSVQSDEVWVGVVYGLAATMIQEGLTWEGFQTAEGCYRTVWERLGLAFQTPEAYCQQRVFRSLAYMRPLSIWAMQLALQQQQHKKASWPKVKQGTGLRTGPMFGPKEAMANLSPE
Assay: Inhibition in intact HEK293T cells (24 h), read out by cABPP with ABP 10, GBA2
Format: cell-based
Settings: for IC50: 24 h treatment, cABPP quantification, n=3; for GBA2/GBA ratio, intact cells: IC50 ratio, 24 h
Description: We next examined the activity of 1 and 2 towards the three human β‐D‐glucosidase in intact HEK293T cells. […] It is noted that the GBA‐selectivity of both compounds is much improved in intact cells than in the in vitro system (Figure 2 and Table 1). This is especially true for compound 1, where an impressive 4‐logs of selectivity window is observed.
Figure 5 Inhibitory effect of β‐D‐xylo‐configured cyclophellitol 1 and cyclophellitol aziridine 2 on β‐glucosidases in intact HEK293T cells expressing GBA, GBA2 and GBA3. (A) Representative gel images of cABPP where cells were treated for 24 h with indicated inhibitor. Lysates were then prepared and labeled with fluorescent ABP 10. Fluorescently labeled proteins were visualized after SDS‐PAGE (1 set from n=3 replicates). (B) IC50 curves determined by cABPP labeling results. (C) Apparent IC50 values towards β‐glucosidases in intact HEK293T cells producing GBA, GBA2 and GBA3 were determined by the fluorescence quantification based on cABPP SDS‐PAGE results.
ABP labeling procedure: Glycosidases were labeled with excess fluorescent ABPs at optimum conditions. ABP labeling was performed at 37 °C for 30 min for all materials (if not otherwise stated), in a total sample volume of 20–40 μL and 0.5–1 % DMSO concentration. GBA was labeled with 200 nM ABP 9 (pH 5.2, 0.1 % (v/v) Triton‐100, 0.2 % (w/v) sodium taurocholate), or labeled together with GBA2 using 200 nM β‐D‐glucose‐configured aziridine ABP 10 at pH 5.8, or labeling together with GBA2 and GBA3 using 200 nM β‐D‐glucose‐configured aziridine ABP 10 at pH 6.0. After ABP incubation, proteins were denatured by boiling the samples with 5× Laemmli buffer (50 % (v/v) 1 M Tris‐HCl, pH 6.8, 50 % (v/v) 100 % glycerol, 10 % (w/v) DTT, 10 % (w/v) SDS, 0.01 % (w/v) bromophenol blue) for 5 min at 98 °C, and separated by electrophoresis on 10 % (w/v) SDS‐PAGE gels running continuously at 90 V. Wet slab‐gels were scanned on fluorescence using the Typhoon FLA 9500 (GE Healthcare) at λEX 473 nm and λEM≥510 nm for green fluorescent ABP 8; and at λEX 635 nm and λEM≥665 nm for ABP 6, 9 and 10. ABP‐emitted fluorescence was quantified using ImageQuant software (GE Healthcare, Chicago, IL, USA) and curve‐fitted using Prism 8.0 (GraphPad Software). After fluorescence scanning, SDS‐PAGE gels were stained for total protein with Coomassie G250 and scanned on a ChemiDoc MP imager (Bio‐Rad, Hercules, CA, USA).[25]
Assessment of inhibitor activity in cultured cells: Confluent HEK293T stably expressing human GBA and GBA2 GBA3 overexpressing were cultured in 24‐well plates in triplicates with(out) inhibitors for 24 h at 37 °C with 7 % CO2. […]

| SMILES | IC50 | GBA2/GBA ratio, intact cells |
| --- | --- | --- |
| O[C@@H]1[C@@H](O)[C@H](O)C[C@H]2N[C@@H]12 [compound 2, β‐D‐xylo‐Cyclophellitol aziridine] | 10.4 ± 1.53 µM | 247 |
| O[C@@H]1[C@@H](O)[C@H](O)C[C@H]2O[C@@H]12 [compound 1, xylo‐cyclophellitol] | > 100 µM | > 10000 |
